Measured values as given in paper PMC13576449, “Small-Molecule Activators of PRMT1: Discovery, SAR Analyses, and Proapoptotic Effects in Pancreatic Cancer Cells” (Journal of Medicinal Chemistry, 2026).

Experiments:
FLAG-tagged PRMT4 = biological target: T1, FLAG-tagged PRMT4 (Mus musculus, UniProt Q9WVG6); test: Fluorescence-based in vitro PRMT assay (F-PRMT assay), PRMT4; format: biochemical; conditions: vs solvent control = 100%
T1 construct: Full-length FLAG-tagged PRMT protein; made in house; host or cells: Sf9 insect cells (baculovirus)
T1 sequence (Q9WVG6 1-608): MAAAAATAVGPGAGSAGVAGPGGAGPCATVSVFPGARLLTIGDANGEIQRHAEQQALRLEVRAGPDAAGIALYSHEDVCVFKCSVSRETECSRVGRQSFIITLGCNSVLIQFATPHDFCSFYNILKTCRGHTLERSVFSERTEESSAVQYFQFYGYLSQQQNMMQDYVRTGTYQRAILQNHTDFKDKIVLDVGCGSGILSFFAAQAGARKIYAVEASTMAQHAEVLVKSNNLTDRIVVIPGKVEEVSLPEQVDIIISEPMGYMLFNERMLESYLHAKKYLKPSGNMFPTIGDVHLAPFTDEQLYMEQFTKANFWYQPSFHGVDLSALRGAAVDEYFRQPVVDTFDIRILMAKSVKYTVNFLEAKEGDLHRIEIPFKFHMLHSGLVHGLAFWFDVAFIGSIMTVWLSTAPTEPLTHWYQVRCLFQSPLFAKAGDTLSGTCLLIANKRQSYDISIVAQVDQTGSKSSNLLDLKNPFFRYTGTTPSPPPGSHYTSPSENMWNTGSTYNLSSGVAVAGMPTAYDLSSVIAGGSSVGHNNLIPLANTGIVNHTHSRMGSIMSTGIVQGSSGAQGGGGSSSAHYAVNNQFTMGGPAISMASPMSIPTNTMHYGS
Excerpt: (§1) To evaluate the effects of the selected candidate molecules on the catalytic activity of type I enzymes, we employed a quantitative fluorescence-based in vitro PRMT activity (F-PRMT) assay using recombinant FLAG-tagged PRMT proteins expressed and affinity-purified from baculovirus-infected Sf9 cells (SI Figure S1, SI Figure S2A).
(§2) Human cell lines (PaTu8988T, PANC-1) were obtained from ATCC (American Type Culture Collection) and cultured in DMEM supplemented with 10% fetal calf serum (FCS, Gibco/BRL), 1% penicillin/streptomycin at 37 °C and 5% CO2. […] For PRMT1 inhibition, cells were treated with type I PRMT inhibitor MS023 hydrochloride (Biomol). For induction of genotoxic stress, cells were treated with gemcitabine (LC Laboratories). […] The following plasmids were used: pFASTBAC-FLAG-rat PRMT1, pFASTBAC-FLAG-mouse PRMT4, and pGEX-GAR. The complete ORFs of human PRMT3 and PRMT6 were inserted into the pFASTBAC HT-3xFLAG B vector via BamHI/HindIII and BamHI/XhoI sites, respectively.
(§3) For PRMT protein expression in insect cells, recombinant baculovirus (bacmid) was generated using the Bac-to-Bac baculovirus system (Invitrogen). Sf9 cells were transfected with bacmid DNA using X-tremeGENE HP DNA transfection reagent (Sigma-Aldrich) according to the manufacturer's instructions. After 3–5 days, supernatants were collected, filtered, and used to infect Sf9 cells to amplify the virus. After 2 rounds of virus amplification and estimation of the final P3 virus titer, the P3 virus (2–5 μL/10^6 cells) was applied for large-scale infection of 200 × 10^6 Sf9 cells in suspension culture at a density of 1 × 10^6 cells/mL. Cells were harvested 5–6 days post-infection by centrifugation at 500 g for 5 min at room temperature. Protein purification from baculovirus-infected Sf9 cells was performed as previously described. , Cells were lysed in BC buffer (20 mM HEPES pH 7.9, 250 mM NaCl, 10% (v/v) glycerin, 0.4 mM EDTA, 1 mM DTT) containing a protease inhibitor cocktail (Roche) by 3 freeze-thaw cycles. After centrifugation at 11,000 rpm (Sorval SS34 rotor) and 4 °C for 1 h, the supernatant (whole cell protein extract) was incubated with anti-FLAG M2 Affinity Gel (Cytiva) at 4 °C and under agitation for 4 h. Subsequently, beads were washed in BC buffer containing various NaCl concentrations (once in BC with 1 M NaCl, twice in BC with 500 mM NaCl, twice in BC with 250 mM NaCl and twice in BC with 100 mM NaCl). FLAG-tagged proteins were either maintained bead-bound as a 50% (v/v) slurry in BC buffer with 100 mM NaCl and stored at −80 °C or were eluted in the appropriate elution buffer (depending on the subsequent assay) containing 0.25 mg/mL 3xFLAG peptides (Sigma-Aldrich) at 4 °C for 30–45 min. To remove the FLAG-peptides from the eluate, dialysis was performed in elution buffer containing 10% (v/v) glycerol at 4 °C for 4–6 h using Slide-A-Lyzer Dialysis Devices (Thermo Fisher Scientific) according to the manufacturer’s recommendations.
(§4) In the first step, the fluorogenic substrate Nα-Benzoyl-L-arginine-7-amido-4-methylcoumarin (Bz-Arg-AMC, Sigma-Aldrich) undergoes methylation by PRMTs upon the addition of the cofactor SAM. In the second reaction step, trypsin cleaves the nonmethylated substrate, leading to the generation of the 7-amino-4-methylcoumarin product, which can be quantified by subsequent fluorescence measurement (excitation: 355 nm, emission: 460 nm). The first reaction was conducted with bead-bound PRMTs at a total volume of 100 μL. Each condition was performed as a technical triplicate to determine the mean and the standard deviation. […] For the negative controls, SAM was substituted with assay buffer. The incubation was continued at 37 °C and under agitation (1,000 rpm) for a duration of 2 h.

FLAG-tagged PRMT6 = biological target: T2, FLAG-tagged PRMT6 (Homo sapiens, UniProt Q96LA8); test: Fluorescence-based in vitro PRMT assay (F-PRMT assay), PRMT6; format: biochemical; conditions: vs solvent control = 100%
T2 construct: The complete ORFs of human PRMT3 and PRMT6 were inserted; made in house; host or cells: Sf9 insect cells (baculovirus)
In short: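 Baculovirus/Sf9-expressed FLAG-PRMTs (human PRMT3, PRMT6; mouse PRMT4), anti-FLAG purified and used bead-bound, methylated Bz-Arg-AMC with SAM for 2 h at 37 °C, 1,000 rpm. Technical triplicates; no-SAM negative controls.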

FLAG-tagged PRMT1 = biological target: T3, FLAG-tagged PRMT1 (Rattus norvegicus, UniProt Q63009); test: Fluorescence-based in vitro PRMT assay (F-PRMT assay), PRMT1; format: biochemical; conditions: for Experimental result (PRMT1): vs solvent control = 100%
T3 construct: Full-length FLAG-tagged PRMT protein; made in house; host or cells: Sf9 insect cells (baculovirus)

FLAG-tagged PRMT3 = biological target: T4, FLAG-tagged PRMT3 (Homo sapiens, UniProt O60678); test: Fluorescence-based in vitro PRMT assay (F-PRMT assay), PRMT3; format: biochemical; conditions: vs solvent control = 100%
T4 construct: The complete ORFs of human PRMT3 and PRMT6 were inserted; made in house; host or cells: Sf9 insect cells (baculovirus)
Excerpt: as §1, §2, §3, §4

PANC-1 cells = test: CaspaseGlo 3/7 apoptosis assay, PANC-1; format: cell-based, human; conditions: compound 10 μM, after 2 h gemcitabine 10 and 25 nM, 72 h
Method: (§5) 6 Effect of small-molecule modulators on gemcitabine-induced apoptosis and tumor growth of PDAC cells. […] After 2 h, gemcitabine (GEM) was added at increasing concentrations (10 and 25 nM) or not (−) for another incubation of 72 h. Subsequently, the luminescence-based caspase3/7 assay was performed. The activity of caspase 3/7 in treated cells was normalized to the activity measured in untreated cells (dark gray bar), which was set to 1 (mean SD, n = 6 for PANC-1 and n = 4 for PaTu8988T; *: p ≤ 0.05, **: p ≤ 0.01, ***: p ≤ 0.001, using the student t-test). […] After 24 h, gemcitabine (GEM, 1 μM) was added (+) or not (−) for another incubation of 48 h. Subsequently, the apoptotic cell fraction was quantified in % by flow cytometry using FITC-labeled Annexin V (AV) and propidium iodide (PI) staining (in B: mean ± SD, n = 6 for PANC-1 and n = 5 for PaTu8988T; **: p ≤ 0.01, ***: p ≤ 0.001, ****: p ≤ 0.0001, using the student t-test). […] Viable cells are AV/PI double-negative (AV–/PI–, lower left quadrant, Q4), early apoptotic cells are AV single-positive (AV+/PI– upper left quadrant, Q1), late apoptotic cells are AV/PI double-positive (AV+/PI+, upper right quadrant, Q2), and necrotic cells are PI single-positive (AV–/PI+, lower right quadrant, Q3). The sum of early and late apoptotic cell numbers ([…] in %) is indicated in red. D-G: The workflow of the PDAC xenograft experiments in mice is depicted in D. PANC-1 cells (2 × 10^6 cells/mouse) were subcutaneously (s.c.) injected in the right flank of female athymic nude mice. Small tumor nodules appeared 6 days post-engraftment. […] Tumor volumes were measured every second day using a digital caliper. […] At the end of the 2 weeks, mice were sacrificed and tumors were dissected (F).
(§6) For quantification of apoptosis using the CaspaseGlo 3/7 assay (Promega), PANC-1 and PaTu8988T cells were seeded in triplicates in white 96-well plate (5 × 10^3 cells/well) and cultured in the absence or presence of compounds. After 2 h, as soon as the cells had settled, gemcitabine was added or not, and cells were incubated for another 72 h. Subsequently, the caspase3/7 activity was measured using the luminescence-based CaspaseGLO-3/7 assay (Promega). To this end, the CaspaseGlo reagent was subsequently added to the cells at a 1:1 ratio and incubated at room temperature and under agitation for 30 min protected from light. The luminescence measurements were carried out using a microplate reader (Mithras LB 940, Berthold).

PaTu8988T cells = test: CaspaseGlo 3/7 apoptosis assay, PaTu8988T; format: cell-based, human; conditions: compound 10 μM, after 2 h gemcitabine 10 and 25 nM, 72 h
Method: as §5, §6

[1] = Table 1, 100 μM compound, 2 μM PRMT, n = 3, racemates used

T3 sequence (Q63009 whole entry): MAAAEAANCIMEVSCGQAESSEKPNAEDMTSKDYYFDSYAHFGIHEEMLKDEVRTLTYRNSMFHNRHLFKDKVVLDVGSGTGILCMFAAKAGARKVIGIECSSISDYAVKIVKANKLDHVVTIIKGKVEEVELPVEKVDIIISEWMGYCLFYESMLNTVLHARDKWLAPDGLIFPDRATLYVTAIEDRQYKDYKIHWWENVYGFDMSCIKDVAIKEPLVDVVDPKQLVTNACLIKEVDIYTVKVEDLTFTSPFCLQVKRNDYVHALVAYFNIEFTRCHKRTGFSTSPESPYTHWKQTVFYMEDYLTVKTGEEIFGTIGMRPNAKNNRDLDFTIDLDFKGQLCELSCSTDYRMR
T4 sequence (O60678 whole entry): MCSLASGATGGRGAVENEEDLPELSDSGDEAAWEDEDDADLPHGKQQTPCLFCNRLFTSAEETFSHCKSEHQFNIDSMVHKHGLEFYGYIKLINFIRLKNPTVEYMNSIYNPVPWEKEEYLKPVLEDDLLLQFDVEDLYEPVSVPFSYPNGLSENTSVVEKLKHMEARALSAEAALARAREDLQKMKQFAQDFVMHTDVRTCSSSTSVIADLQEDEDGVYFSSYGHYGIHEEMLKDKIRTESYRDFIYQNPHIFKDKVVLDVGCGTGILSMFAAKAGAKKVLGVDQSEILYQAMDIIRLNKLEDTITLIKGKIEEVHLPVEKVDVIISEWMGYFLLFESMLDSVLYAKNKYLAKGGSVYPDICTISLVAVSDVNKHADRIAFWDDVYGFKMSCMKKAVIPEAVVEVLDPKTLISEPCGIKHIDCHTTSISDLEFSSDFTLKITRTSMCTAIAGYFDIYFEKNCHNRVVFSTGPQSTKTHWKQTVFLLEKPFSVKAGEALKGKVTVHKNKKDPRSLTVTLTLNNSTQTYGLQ
T2 sequence (Q96LA8 whole entry): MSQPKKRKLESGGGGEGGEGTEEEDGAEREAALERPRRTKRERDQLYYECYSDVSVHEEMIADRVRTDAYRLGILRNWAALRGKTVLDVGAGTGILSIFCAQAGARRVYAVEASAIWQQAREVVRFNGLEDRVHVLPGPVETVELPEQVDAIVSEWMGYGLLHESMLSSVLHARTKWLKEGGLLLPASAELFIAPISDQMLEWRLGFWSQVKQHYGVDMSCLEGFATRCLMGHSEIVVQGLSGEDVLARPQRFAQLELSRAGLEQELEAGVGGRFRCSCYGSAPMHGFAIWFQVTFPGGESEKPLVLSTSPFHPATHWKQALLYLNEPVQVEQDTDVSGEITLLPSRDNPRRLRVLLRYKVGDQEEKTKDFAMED

| SMILES | Experimental result (PRMT4) (FLAG-tagged PRMT4; [1]) | Experimental result (PRMT6) (FLAG-tagged PRMT6; [1]) | Experimental result (PRMT1) (FLAG-tagged PRMT1; [1]) | Experimental result (PRMT3) (FLAG-tagged PRMT3; [1]) | other results |
| --- | --- | --- | --- | --- | --- |
| CNC[C@H](O)COc1ccc([N+](=O)[O-])cc1Cl (racemic) [Compound K001JS007] | PRMT4 i | PRMT6 i | PRMT1 i | PRMT3 n.e. (Compounds, which did not significantly affect the catalytic activity (less than ±6% change or not significant p-value), are marked with [drawing 8] (no effect)) | Efficacy ±Δ% (PRMT1) (FLAG-tagged PRMT1; Table 1, 100 μM compound, mean % difference of activity vs solvent control (100%), - inhibition, + activation, n = 3): -30% |
| CNC[C@@H](O)COc1cccc(OC)c1 (racemic) [Compound K001JS003] | PRMT4 i | PRMT6 n.e. (Compounds, which did not significantly affect the catalytic activity (less than ±6% change or not significant p-value), are marked with [drawing 8] (no effect)) | PRMT1 n.e. (Compounds, which did not significantly affect the catalytic activity (less than ±6% change or not significant p-value), are marked with [drawing 8] (no effect)) | PRMT3 n.e. (Compounds, which did not significantly affect the catalytic activity (less than ±6% change or not significant p-value), are marked with [drawing 8] (no effect)) |  |
| CC(C)Oc1ccc(-c2c[nH]cc2CN(C)CCN)cc1 [MS023, reference compound] |  |  |  |  | gemcitabine-induced apoptosis, caspase 3/7 activity, co-treatment (PANC-1 cells): diminished; gemcitabine-induced apoptosis, caspase 3/7 activity, co-treatment (PaTu8988T cells): diminished |
| O=C1NC(=O)c2ccccc2/C1=C/Nc1ccccc1 [TR-014, (Z)-4-[(Phenylamino)methylene]isoquinoline-1,3(2H,4H)-dione] |  |  |  |  | Experimental result (PRMT4) (FLAG-tagged PRMT4; Table S3, 100 µM compound, n≥3): n.e. (did not significantly affect the catalytic activity (less than ±6% change or not significant p-value), are marked with n.e. (no effect)); Experimental result (PRMT6) (FLAG-tagged PRMT6; Table S3, 100 µM compound, n≥3): n.e. (did not significantly affect the catalytic activity (less than ±6% change or not significant p-value), are marked with n.e. (no effect)); effect on PRMT1 activity (in words) (FLAG-tagged PRMT1; 100 μM compound): no significant effect; Experimental result (PRMT1) (FLAG-tagged PRMT1; Table S3, 100 µM compound, n≥3): n.e. (did not significantly affect the catalytic activity (less than ±6% change or not significant p-value), are marked with n.e. (no effect)); Experimental result (PRMT3) (FLAG-tagged PRMT3; Table S3, 100 µM compound, n≥3): n.e. (did not significantly affect the catalytic activity (less than ±6% change or not significant p-value), are marked with n.e. (no effect)) |
